Measured values reported in ChEMBL document CHEMBL1136350, “Design and synthesis of orally active inhibitors of TNF synthesis as anti-rheumatoid arthritis drugs” (Bioorg Med Chem Lett, 2003).
pIC50: −log10 of the molar value. Each block holds one compound with its values, some of them ahead of it.

Experiments:
[1] = system: MONO-MAC-6; test: Inhibitory activity against monomac6 (MM6) human monocytic cell line; assay type: functional, cell-based
[2] = Area under curve was determined in rat after oral administration at a concentration 30 mg/kg; assay type: ADME, organism-based; design: dose 30 mg/kg, route oral; details: in vivo
[3] = system: Rattus norvegicus; test: Area under curve was determined in rat after oral administration at a concentration 30 mg/kg; NA= Not active; assay type: ADME, organism-based; design: dose 30 mg/kg, route oral; details: in vivo
[4] = Cmax in rat plasma after 30mg/kg oral dose; assay type: ADME, organism-based; design: dose 30 mg/kg, route oral
[5] = Cmax in dog plasma after 30mg/kg oral dose; assay type: ADME, organism-based, Canis lupus familiaris; design: dose 30 mg/kg, route oral
[6] = system: Mus musculus; test: Number of paws at risk inflamed by murine collagen -induced arthritis(MCIA) in mice after peroral administration at a concentration 5 mg/kg; assay type: functional; details: route oral
[7] = system: Mus musculus; test: Number of paws at risk inflamed by murine collagen -induced arthritis(MCIA) in mice after peroral administration at a concentration 15 mg/kg; assay type: functional; details: route oral
[8] = system: Mus musculus; test: Inhibition of murine collagen -induced arthritis(MCIA) in mice after peroral administration at a concentration 5 mg/kg; assay type: functional; details: route oral
[9] = system: Mus musculus; test: Reduction of murine collagen -induced arthritis(MCIA) in mice after peroral administration at a concentration 45 mg/kg; assay type: functional; details: route oral
[10] = system: Mus musculus; test: Reduction of murine collagen -induced arthritis(MCIA) in mice after peroral administration at a concentration 2 mg/kg; assay type: functional; details: route oral
[11] = system: Mus musculus; test: Number of positive paws that was inflamed by murine collagen -induced arthritis(MCIA) in mice after peroral administration 13 day at a concentration 120 mg/kg; assay type: functional; details: route oral
[12] = system: Mus musculus; test: Number of positive paws that was inflamed by murine collagen -induced arthritis(MCIA) in mice after peroral administration 13 day at a concentration 2 mg/kg; assay type: functional; details: route oral
[13] = system: Mus musculus; test: Number of positive paws that was inflamed by murine collagen -induced arthritis(MCIA) in mice after peroral administration 13 day at a concentration 15 mg/kg; assay type: functional; details: route oral
[14] = system: Mus musculus; test: Number of paws at risk inflamed by murine collagen -induced arthritis(MCIA) in mice after peroral administration at a concentration 2 mg/kg; assay type: functional; details: route oral
[15] = system: Mus musculus; test: Reduction of murine collagen -induced arthritis(MCIA) in mice after peroral administration at a concentration 120 mg/kg; assay type: functional; details: route oral
[16] = system: Mus musculus; test: Reduction of murine collagen -induced arthritis(MCIA) in mice after peroral administration at a concentration 15 mg/kg; assay type: functional; details: route oral
[17] = system: Mus musculus; test: Inhibition of murine collagen -induced arthritis(MCIA) in mice after peroral administration at a concentration 2 mg/kg; assay type: functional; details: route oral
[18] = system: Mus musculus; test: Number of positive paws that was inflamed by murine collagen -induced arthritis(MCIA) in mice after peroral administration 13 day at a concentration 45 mg/kg; assay type: functional; details: route oral
[19] = Plasma concentration in rats after 7 hr at 30mg/kg oral dose; assay type: ADME, organism-based; details: rat, read-out: Conc_plasma
[20] = system: Mus musculus; test: Inhibition of murine collagen -induced arthritis(MCIA) in mice after peroral administration at a concentration 45 mg/kg; assay type: functional; details: route oral
[21] = system: Mus musculus; test: Number of positive paws that was inflamed by murine collagen -induced arthritis(MCIA) in mice after peroral administration 13 day at a concentration 5 mg/kg; assay type: functional; details: route oral
[22] = system: Mus musculus; test: Number of paws at risk inflamed by murine collagen -induced arthritis(MCIA) in mice after peroral administration at a concentration 45 mg/kg; assay type: functional; details: route oral
[23] = system: Mus musculus; test: Number of paws at risk inflamed by murine collagen -induced arthritis(MCIA) in mice after peroral administration at a concentration 120 mg/kg; assay type: functional; details: route oral
[24] = system: Mus musculus; test: Inhibition of murine collagen -induced arthritis(MCIA) in mice after peroral administration at a concentration 120 mg/kg; assay type: functional; details: route oral
[25] = system: Mus musculus; test: Reduction of murine collagen -induced arthritis(MCIA) in mice after peroral administration at a concentration 5 mg/kg; assay type: functional; details: route oral
[26] = system: Mus musculus; test: Inhibition of murine collagen -induced arthritis(MCIA) in mice after peroral administration at a concentration 15 mg/kg; assay type: functional; details: route oral
[27] = Plasma concentration in dogs after 2 hr at 30mg/kg oral dose; assay type: ADME, organism-based, Canis lupus familiaris; details: dog, read-out: Conc_plasma

Compound: COc1ccc(C2=CCN(S(=O)(=O)N3CCCC[C@@H]3C(=O)NO)CC2)cc1
pIC50 ([1]; Homo sapiens, MONO-MAC-6): 4.82

Compound: O=C(NO)[C@H]1CN(CC(F)(F)F)CCN1S(=O)(=O)N1CC=C(c2ccc(F)cc2)CC1
AUC [2]: 3.26 µg·h/mL
pIC50 ([1]; Homo sapiens, MONO-MAC-6): 6.52

Compound: O=C(NO)[C@H]1CCCCN1S(=O)(=O)N1CC=C(c2ccccc2)CC1
pIC50 ([1]; Homo sapiens, MONO-MAC-6): 6.62

Compound: O=C(NO)[C@H]1CNCCN1S(=O)(=O)N1CC=C(c2ccc(F)cc2)CC1
pIC50 ([1]; Homo sapiens, MONO-MAC-6): 5.45
AUC [3]: Not Active

Compound: C[C@@H](NS(=O)(=O)N1CC=C(c2ccc(Cl)cc2)CC1)C(=O)NO
pIC50 ([1]; Homo sapiens, MONO-MAC-6): 5.91

Compound: O=C(NO)[C@H]1CCCCN1S(=O)(=O)N1CC=C(c2cccc(-c3ccccc3)c2)CC1
pIC50 ([1]; Homo sapiens, MONO-MAC-6): 5.12

Compound: O=C(NO)[C@H]1CCCCN1S(=O)(=O)N1CC=C(c2ccc(F)cc2)CC1
Cmax [4]: 3.06 µg/mL
Cmax [5]: 0.117 µg/mL
pIC50 ([1]; Homo sapiens, MONO-MAC-6): 6.52

Compound: CN(C)C(=O)N1CCN(S(=O)(=O)N2CC=C(c3ccc(F)cc3)CC2)[C@@H](C(=O)NO)C1
Cmax [4]: 1.05 µg/mL
AUC [2]: 6.18 µg·h/mL
Severity [6]: 2.4
Severity [7]: 2.8
Cmax [5]: 0.182 µg/mL
Max score [8]: 2.7
inhibition in vivo at 45 mg/kg [9]: 56%
inhibition in vivo at 2 mg/kg [10]: 67%
Positive paws [11]: 4%
Positive paws [12]: 27%
pIC50 ([1]; Homo sapiens, MONO-MAC-6): 6.70
Positive paws [13]: 41%
Severity [14]: 2.7
inhibition in vivo at 120 mg/kg [15]: 96%
inhibition in vivo at 15 mg/kg [16]: 49%
Max score [17]: 2.9
Positive paws [18]: 33%
concentration at 7 h [19]: 0.233 µg/mL
Max score [20]: 3.8
Positive paws [21]: 30%
Severity [22]: 2.9
Severity [23]: 1
Max score [24]: 0.3
inhibition in vivo at 5 mg/kg [25]: 69%
Max score [26]: 4.5
concentration at 2 h [27]: 0.11 µg/mL

Compound: O=C(NO)[C@H]1CCCCN1S(=O)(=O)N1CC=C(c2ccc(Oc3ccccc3)cc2)CC1
pIC50 ([1]; Homo sapiens, MONO-MAC-6): 5.48

Compound: CN(C)S(=O)(=O)N1CCN(S(=O)(=O)N2CC=C(c3ccc(F)cc3)CC2)[C@@H](C(=O)NO)C1
AUC [2]: 3.27 µg·h/mL
pIC50 ([1]; Homo sapiens, MONO-MAC-6): 6.60

Compound: O=C(NO)[C@H]1CCCCN1S(=O)(=O)N1CC=C(c2ccc(-c3ccccc3)cc2)CC1
pIC50 ([1]; Homo sapiens, MONO-MAC-6): 4.72

Compound: CN(C)P(=O)(N(C)C)N1CCN(S(=O)(=O)N2CC=C(c3ccc(F)cc3)CC2)[C@@H](C(=O)NO)C1
AUC [2]: 1.54 µg·h/mL
pIC50 ([1]; Homo sapiens, MONO-MAC-6): 6.29

Compound: O=C(NO)[C@H]1CCCCN1S(=O)(=O)N1CC=C(c2ccc(Cl)cc2)CC1 (stereo in doubt; 3)
pIC50 ([1]; Homo sapiens, MONO-MAC-6): 6.37

Compound: O=C(NO)[C@H]1CCCCN1S(=O)(=O)N1CC=C(c2ccc(Cl)cc2)CC1 (stereo in doubt; 6)
pIC50 ([1]; mono-mac-6): 6.32

The next lines start with the values.

pIC50 ([1]; Homo sapiens, MONO-MAC-6): 5.59
Compound: CCCc1ccc(C2=CCN(S(=O)(=O)N3CCCC[C@@H]3C(=O)NO)CC2)cc1

pIC50 ([1]; Homo sapiens, MONO-MAC-6): 5.92
Compound: O=C(NO)[C@H]1CCCCN1S(=O)(=O)N1CC=C(c2ccc(F)c(F)c2)CC1

pIC50 ([1]; Homo sapiens, MONO-MAC-6): 5.92
Compound: O=C(NO)[C@H]1CCCCN1S(=O)(=O)N1CC=C(c2ccc(Br)cc2)CC1

pIC50 ([1]; Homo sapiens, MONO-MAC-6): 6.49
Compound: CCc1cccc(C2=CCN(S(=O)(=O)N3CCCC[C@@H]3C(=O)NO)CC2)c1

pIC50 ([1]; Homo sapiens, MONO-MAC-6): 5.24
Compound: C[C@@H](NS(=O)(=O)N1CCC(c2ccc(Cl)cc2)CC1)C(=O)NO

AUC [2]: 7.94 µg·h/mL
pIC50 ([1]; Homo sapiens, MONO-MAC-6): 6.46
Compound: O=C(NO)[C@H]1CN(C(=O)N2CCOCC2)CCN1S(=O)(=O)N1CC=C(c2ccc(F)cc2)CC1

AUC [2]: 1.79 µg·h/mL
pIC50 ([1]; Homo sapiens, MONO-MAC-6): 6.92
Compound: CNC(=O)N1CCN(S(=O)(=O)N2CC=C(c3ccc(F)cc3)CC2)[C@@H](C(=O)NO)C1

pIC50 ([1]; Homo sapiens, MONO-MAC-6): 6.59
Compound: COc1cccc(C2=CCN(S(=O)(=O)N3CCCC[C@@H]3C(=O)NO)CC2)c1
